Tests used:
[1] = test system: patients with interstitial lung disease and pulmonary hypertension; assay: 6-minute walk test, INCREASE; format: in vivo, human
Protocol: We enrolled patients with interstitial lung disease and pulmonary hypertension (documented by right heart catheterization) in a multicenter, randomized, double-blind, placebo-controlled, 16-week trial. Patients were assigned in a 1:1 ratio to receive inhaled treprostinil, administered by means of an ultrasonic, pulsed-delivery nebulizer in up to 12 breaths (total, 72 μg) four times daily, or placebo. The primary efficacy end point was the difference between the two treatment groups in the change in peak 6-minute walk distance from baseline to week 16. Secondary end points included the change in N-terminal pro-B-type natriuretic peptide (NT-proBNP) level at week 16 and the time to clinical worsening.
(§1) The 6-minute walk test was performed and laboratory data were obtained at baseline and at weeks 4, 8, 12, and 16, or at the time of early discontinuation of treprostinil or placebo. Each 6-minute walk test was performed 10 to 60 minutes after the most recent dose of active drug or placebo, which is the time of peak plasma treprostinil exposure. A trough test was performed at week 15 at least 4 hours after the participant received a dose of treprostinil or placebo and at least 24 hours before the week 16 test. Pulse oximetry was performed immediately before, during, and after each 6-minute walk test. Measurement of N-terminal pro-B-type natriuretic peptide (NT-proBNP) levels and pulmonary function tests were performed at baseline and at weeks 8 and 16 (or at early discontinuation) after the patients recovered from the 6-minute walk test. The St. George's Respiratory Questionnaire (SGRQ), a quality-of-life measure, was completed at baseline and week 16 or at the time of early discontinuation.
The primary end point of the trial was the difference between the two groups in the change in peak 6-minute walk distance from baseline to week 16. Secondary efficacy end points were analyzed in the following hierarchical testing order: the change in NT-proBNP level from baseline to week 16, the time to clinical worsening, the change in 6-minute walk distance at peak plasma treprostinil level at week 12, and the change in 6-minute walk distance at trough treprostinil level at week 15. The time to clinical worsening was evaluated from the time of randomization until the patient's withdrawal from the trial and was defined as the time until the occurrence of any one of the following events: hospitalization for a cardiopulmonary indication, a decrease in 6-minute walk distance greater than 15% from baseline that was directly related to the disease under study at two consecutive visits and at least 24 hours apart, death from any cause, or lung transplantation.
For the primary efficacy analysis, the change in 6-minute walk distance was analyzed by mixed-model repeated-measures methods, under the assumption that missing data were missing at random. The model included the change from baseline to peak 6-minute walk distance as the dependent variable, with treatment, week, and treatment-by-week interaction as fixed effects, and the baseline 6-minute walk distance as a covariate. A sensitivity analysis for the primary end point was performed by means of a multiple imputation approach with a multivariate normal imputation model according to the Markov chain Monte Carlo method. The imputation model included treatment group, all scheduled visits, the patient's sex, and the patient's age at randomization. If the result for the primary efficacy end point was significant, secondary efficacy end points were to be evaluated according to a hierarchical testing procedure. Confidence intervals have not been adjusted for multiplicity and can-not be used to infer definitive treatment effects for secondary efficacy end points.

[2] = test system: patients with interstitial lung disease and pulmonary hypertension; assay: SpO2 by pulse oximetry around the 6-minute walk test, INCREASE; format: in vivo, human
Protocol: as §1

[3] = vs placebo, listed as Inhaled Treprostinil
[4] = vs placebo, listed as inhaled treprostinil

CCCCC[C@H](O)CC[C@@H]1[C@H]2Cc3cccc(OCC(=O)O)c3C[C@H]2C[C@H]1O [Inhaled treprostinil, treprostinil]
Change in peak 6-minute walk distance from baseline to wk 16 ([1]; LS mean ± SE, MMRM): 21.08 ± 5.12 m | Least-squares mean change in peak 6-minute walk distance from baseline to wk 12 ([1]; mean ± SE): 18.77 ± 4.99 m | Least-squares mean change in trough 6-minute walk distance from baseline to wk 15 ([1]; mean ± SE): 9.3 ± 5.5 m | Treatment effect, least-squares mean difference in change in peak 6-minute walk distance, baseline to wk 16 ([1]; vs placebo, MMRM, listed as Inhaled Treprostinil): 31.12 ± 7.25 m | Treatment effect, least-squares mean difference in change in peak 6-minute walk distance, baseline to wk 16 ([1]; vs placebo, MMRM, listed as inhaled treprostinil): 31.12 m | Treatment effect, least-squares mean difference in change in peak 6-minute walk distance, baseline to wk 16 ([1]; vs placebo, MMRM, listed as treprostinil): 31.12 m | Treatment effect, least-squares mean difference in peak 6-minute walk distance, baseline to wk 12 [1, 3]: 31.29 ± 7.07 m | Treatment effect, least-squares mean difference in trough 6-minute walk distance, baseline to wk 15 [1, 3]: 21.99 ± 7.7 m | Treatment effect, least-squares mean difference in peak 6-minute walk distance, baseline to wk 12 [1, 4]: 31.29 m | Treatment effect, least-squares mean difference in trough 6-minute walk distance, baseline to wk 15 [1, 4]: 21.99 m | between-group difference in change from baseline in peak 6-minute walk distance at week 16 ([1]; vs placebo, multiple imputation, Markov chain Monte Carlo): 30.97 m | During Walk SpO2 (%), Change from Pre-walk, Median ([2]; Week 16): −17.0% | During Walk SpO2 (%), Value, Median ([2]; Week 16): 77.0% | Post-walk SpO2 (%), Change from Pre-walk, Median ([2]; Week 16): −13.0% | Post-walk SpO2 (%), Value, Median ([2]; Week 16): 83.0% | Pre-walk SpO2 (%), Value, Median ([2]; Week 16): 95.0% | During Walk SpO2 (%), Change from Pre-walk, Mean (SD) ([2]; Week 16, n 123): −17.6 (7.01) % | During Walk SpO2 (%), Value, Mean (SD) ([2]; Week 16, n 123): 76.8 (7.70) % | Post-walk SpO2 (%), Change from Pre-walk, Mean (SD) ([2]; Week 16, n 128): −12.4 (8.05) % | Post-walk SpO2 (%), Value, Mean (SD) ([2]; Week 16, n 128): 82.1 (9.24) % | Pre-walk SpO2 (%), Value, Mean (SD) ([2]; Week 16, n 130): 94.5 (4.35) % | treatment-related changes in pulse oximetry ([2]; over the trial period): no significant treatment-related changes

— patent US12697315B2, “Treatment for interstitial lung disease” (United Therapeutics Corporation, priority 2020, dated 2026)
